# Measurements as given in article PMC13198257, “An aerosolized dual-action autotaxin inhibitor-PPARγ agonist for the treatment of pulmonary fibrosis” (Cell Reports Medicine, 2026).
# How the values were obtained:
# [1] = Cytotoxicity in HepG2 hepatocytes; format: cell-based; conditions: human, HepG2 cells
# [2] = test system: ATX activity in serum; experiment: TOOS assay: ex vivo lyso-PLD (ATX) activity in serum with 2 mM exogenous LPC; format: biochemical
# Procedure: ATX inhibitory activity ex vivo of examined compounds was assessed via the colorimetric TOOS assay.[32]^,[35]^,[36] The assay was done in Lyso-PLD buffer (100 mM Tris-Cl, pH 8, 500 mM NaCl, 5 mM MgCl2, 5 mM CaCl2). A mix of Lyso-PLD buffer and serum (10:1) was prepared. LPC 16:0 was added to this mix at a final concentration of 2 mM. Increasing concentrations of compounds and a choline standard curve (0–100 μM) were prepared using the Lyso-PLD buffer/serum/LPC mix and 100 μL of these were placed in separate wells of a 96-well plate, followed by a 5 h incubation at 37°C. 100 μL of color mix (TOOS 0.3 mM, 4-AAP 0.5 mM, choline oxidase 2 U/mL, HRP 7.95 U/mL in Lyso-PLD buffer) were added to each well. Color was measured at 550 nm using an Optimax spectrophotometer. Background was subtracted from all values to account for the endogenous LPC and choline in the serum. Produced choline levels were calculated from the choline standard curve and indicate the amount of substrate (LPC) that had been consumed in each well corresponding to Lyso-PLD activity.
# [3] = Mouse metabolic clearance and half-life in vitro
# [4] = test system: BLM-induced pulmonary fibrosis; experiment: BLM-induced pulmonary fibrosis model, inhaled drug; format: in vivo, C57Bl/6 mice
# Text: BLM-induced pulmonary fibrosis was induced via the oropharyngeal aspiration of BLM (0.8 U/Kg).[54]^,[55]^,[141] The dose and route of administration have been selected following extensive local testing to minimise lethality while preserving a solid and reproducible fibrotic profile. Readout assays include weight and overall health status, pulmonary oedema and inflammation, collagen levels determination (soluble in BALFs, Q-RT-PCR and histology in lung tissue), lung histology with specialised stainings (Fast green/picrosirius red), as well as the measurement of respiratory functions (flexiVent, SQIREQ); a detailed protocol is publicly available at protocols.io.
# Drug inhalation of compound 5 and EL244 to conscious, softly restrained mice was performed using the inExpose system (Scireq).[55] Compound 5 and EL244 were diluted in Kolliphor (15% and 10%, respectively) to final concentrations of 6.5 and 9.02 mg/mL, respectively. Volumes of 1 mL (for 5) and 0.6 mL (for EL244) were aerosolized over 10 and 15 min, respectively in groups of 6 mice, corresponding to a final estimated dose of 15mg/Kg per mouse. Control groups received an aerosolized solution of Kolliphor (10–15%) in saline.
# [5] = target: hERG (Homo sapiens, UniProt Q12809); experiment: hERG inhibition; format: biochemical
# [6] = test system: NHLFs; experiment: TGF-β-induced normal human lung fibroblasts (NHLFs): fibrotic markers and PPARγ target genes; format: cell-based; conditions: 75 μΜ, TGFβ 10 ng/ml
# Procedure: Normal human lung fibroblasts (NHLFs), clone 832, were isolated from the adjacent healthy tissue of a patient undergoing open lung surgery for cancer at the Department of Pulmonology, Bichat-Claude Bernard Hospital, Paris/France; studies were approved by the Committee for Personal Protection (CPP)—Ile de France 1 (#0911932). The patient provided written consent to the use of his/her sample for research purposes; no compensation was provided. NHLFs were cultured in DMEM supplemented with 10% FBS, 1% penicillin/streptomycin, and 0.1% amphotericin B at 37 °C, 5% CO2 and ≥95% relative humidity.
# For experiments, NHLFs were seeded in 6-well plates at a density of 2 × 10^5 cells per well. After overnight serum starvation, cells were pre-treated with EL244 or vehicle (concentrations specified in the corresponding figures) for 1 h, followed by stimulation with TGFβ (10 ng/mL) for 24 h.
# Cells were washed twice with ice-cold 1× PBS and lysed in RIPA buffer containing 50 mM Tris-HCl (pH 7.4), 1 mM EDTA, 150 mM NaCl, 0.25% (w/v) sodium deoxycholate, 1% (v/v) Triton X-100, 0.1% (w/v) SDS and 1 mM PMSF. Equal amounts of protein extracts (30 μg) were separated into 10% SDS-PAGE gels and subsequently electro-transferred onto nitrocellulose membranes. Membranes were blocked for 1 h at room temperature in 1X TBS-T containing 5% non-fat dry milk. […] Immunoreactive protein bands were detected using ECL.
# [7] = test system: human PCLS; experiment: Human PCLS with pro-fibrotic cocktail; format: cell-based; conditions: 25 and 50 μΜ
# Procedure: hPCLS were prepared from tumour-free lung tissue obtained during surgical resection from a patient undergoing surgery for pulmonary adenocarcinoma (Subject ID: LB26-0020). The biopsy was provided by the Biobanque CRB-Tumorothèque de Nice, Biobanque CHU de Nice (BB-0033-00025; approved protocol # CSE 2022-EV34), collected after written informed consent, in accordance with the Declaration of Helsinki and applicable French regulations for human biological materials.
# The lung biopsy was rinsed thoroughly with Hank’s balanced salt solution (HBSS, Sigma-Aldrich) supplemented with antibiotics. The tissue was then infused with a 2.5% low-melting agarose solution prepared in DMEM/F-10 containing antibiotics, maintained at 40°C, and rapidly cooled to solidify the agarose. 8 mm tissue punches were then excised and sectioned into 300 μm-thick slices using the Compresstome VF-300-0Z (Precisionary Instruments). Each hPCLS was transferred into an individual well of a 24-well plate containing 500 μL of culture medium supplemented with 1× antibiotic–antimycotic solution (penicillin, streptomycin, amphotericin B), 50 μg/mL gentamicin, 1× insulin-transferrin-selenium (ITS) supplement, and 0.1% FBS. Slices were incubated at 37°C in a humidified atmosphere with 5% CO2. The culture medium was replaced after several hours.
# Fibrosis was induced by a pro-fibrotic cocktail (PFC; 5 ng/mL TGF-β1, […] PDGF-AB, 10 ng/mL TNF-a and 5 μM LPA 18:1), following a well-established protocol.[73] Individual PCLS were first incubated with the PFC for 48 h. After this initial exposure, the medium was renewed and PCLS were treated for an additional 72 h with either PFC alone or PFC supplemented with EL244 (25 μM or 50 μM). Untreated PCLS served as controls.
# [8] = inhaled 15 mg/kg b.i.d., therapeutic mode from 7 days post-BLM
# [9] = inhaled 15 mg/kg o.d., prophylactic mode
# [10] = inhaled 15 mg/kg o.d., therapeutic mode from day 7 post-BLM
# Chain of hERG (Q12809 whole entry): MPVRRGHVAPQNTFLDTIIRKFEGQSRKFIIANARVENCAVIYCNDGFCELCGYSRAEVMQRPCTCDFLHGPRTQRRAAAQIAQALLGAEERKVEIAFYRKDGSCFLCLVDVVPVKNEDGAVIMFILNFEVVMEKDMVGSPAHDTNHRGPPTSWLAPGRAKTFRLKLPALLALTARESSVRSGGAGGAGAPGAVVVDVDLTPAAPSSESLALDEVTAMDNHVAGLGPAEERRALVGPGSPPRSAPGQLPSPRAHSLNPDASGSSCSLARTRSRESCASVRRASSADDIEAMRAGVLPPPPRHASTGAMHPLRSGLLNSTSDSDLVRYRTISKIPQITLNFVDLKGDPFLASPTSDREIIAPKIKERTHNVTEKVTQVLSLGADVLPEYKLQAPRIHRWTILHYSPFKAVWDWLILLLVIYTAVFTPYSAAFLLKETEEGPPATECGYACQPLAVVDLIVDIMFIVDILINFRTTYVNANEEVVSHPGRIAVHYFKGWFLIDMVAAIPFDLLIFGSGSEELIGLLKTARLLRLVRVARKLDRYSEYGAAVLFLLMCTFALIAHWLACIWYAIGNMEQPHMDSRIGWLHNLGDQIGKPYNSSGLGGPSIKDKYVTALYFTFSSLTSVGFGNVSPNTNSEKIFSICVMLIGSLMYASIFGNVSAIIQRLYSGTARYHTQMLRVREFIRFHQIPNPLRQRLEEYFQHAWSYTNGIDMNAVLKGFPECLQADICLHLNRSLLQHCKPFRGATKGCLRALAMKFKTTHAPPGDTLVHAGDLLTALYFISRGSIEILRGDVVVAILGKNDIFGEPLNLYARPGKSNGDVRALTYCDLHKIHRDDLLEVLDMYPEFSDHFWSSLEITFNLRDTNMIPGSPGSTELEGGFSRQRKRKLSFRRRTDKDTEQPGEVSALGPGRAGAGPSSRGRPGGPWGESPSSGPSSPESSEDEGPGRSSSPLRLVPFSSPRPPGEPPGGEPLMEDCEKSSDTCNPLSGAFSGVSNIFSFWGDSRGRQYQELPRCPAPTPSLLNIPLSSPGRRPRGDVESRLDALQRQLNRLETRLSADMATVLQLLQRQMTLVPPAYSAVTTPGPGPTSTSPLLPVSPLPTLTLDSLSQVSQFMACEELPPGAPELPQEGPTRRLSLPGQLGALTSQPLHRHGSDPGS
compound,measurement,setting,value
"O=C1NC(=O)C(Cc2ccc(OCCN3CCN(C(=O)OCc4cc(Cl)cc(Cl)c4)CC3)cc2)S1 (stereo not drawn) [Compound 5, 3,5-dichlorobenzyl4-(2-(4-((2,4-dioxothiazolidin-5-yl)methyl)phenoxy)ethyl)piperazine-1-carboxylate]",CC50,[1],90.3 µM
same,lyso-PLD (ATX) inhibition in serum,[2],dose-dependent effect
same,half-life at 0.1 μM,[3],21 min
same,BALF inflammatory cells,[4]; [8],decreased inflammatory cells
same,"BALF total protein (vascular leak, pulmonary edema)",[4]; [8],decreased total protein levels
same,Decrease of BALF soluble collagen,[4]; [8],did not reach statistical significance
same,Decrease of lung tissue Col1a1 mRNA,[4]; [8],did not reach statistical significance
same,"Histology (H&E, fast green/Sirius red)",[4]; [8],fewer fibrotic regions and decreased collagen deposition
same,"Respiratory functions (Cst, Crs, A)",[4]; [8],efficiently attenuated the BLM-induced impairment of respiratory functions
"O=C1NC(=O)C(Cc2ccc(OCCC3CCN(C(=O)OCc4cc(Cl)cc(Cl)c4)CC3)cc2)S1 (stereo not drawn) [EL244, 3,5-dichlorobenzyl 4-(2-(4-((2,4-dioxothiazolidin-5-yl)methyl)phenoxy)ethyl)piperidine-1-carboxylate]",IC50,[5],> 25 µM
same,inhibition at 25 μM,"[5]; human, 25 μΜ",~12%
same,CC50,[1],81.2 µM
same,Col1a1 and Acta2 (aSMA) mRNA and protein,[6],suppressed
same,PPARγ target genes and PPARγ expression,[6],stimulating the expression of PPARγ target genes
same,lyso-PLD (ATX) inhibition in serum,[2],Improved lyso-PLD inhibition
same,half-life at 0.1 μM,[3],61 min
same,microsomal CLint at 0.1 μM,[3],114 µL/min/mg
same,Col1a1 and Acta2 mRNA expression,[7],downregulation
same,Development of fibrosis (histology),[7],prevented and/or attenuated the development of fibrosis
same,PPARγ target gene expression,[7],upregulated the expression of PPARγ target genes
same,PPARγ target gene mRNA in lung tissue (RT-qPCR),"[4]; BLM mice, inhaled EL244",marginal increases
same,BALF soluble collagen,[4]; [9],significantly reduced
same,Histology,[4]; [9],attenuated collagen deposition and reduced fibrotic regions
same,Inflammation (BALF inflammatory cells),[4]; [9],markedly reduced
same,Lung tissue Col1a1 mRNA,[4]; [9],significantly reduced
same,Pulmonary edema (BALF total protein),[4]; [9],markedly reduced
same,Respiratory functions,"[4]; inhaled 15 mg/kg o.d., prophylactic mode, 15 days from one day before BLM",significantly improved respiratory functions
same,BALF soluble collagen,[4]; [10],significantly reducing
same,Effect on inflammation (BALF inflammatory cells),[4]; [10],did not reach statistical significance
same,Histopathology,[4]; [10],reduced collagen deposition and fewer and smaller fibrotic regions
same,Lung tissue Col1a1 expression,[4]; [10],significantly reducing
same,Respiratory functions,[4]; [10],significantly restored all assessed respiratory functions
same,Vascular permeability (BALF total protein),[4]; [10],reduced vascular permeability
